Data reported in US20220184081A1, “ANTIPRURITIC AGENT USING PAC1 RECEPTOR ANTAGONIST” (KAGOSHIMA UNIVERSITY, priority 2019, published 2022).

Legend:
mouse PAC1 receptor = molecular target: T1, mouse PAC1 receptor (Mus musculus, UniProt P70205); assay: CREB phosphorylation by PACAP stimulus, Western blot, PAC1/CHO cells; type: cell-based
T1 construct: expressed in transfected cells; host or cells: CHO cells
T1 sequence (P70205 21-496): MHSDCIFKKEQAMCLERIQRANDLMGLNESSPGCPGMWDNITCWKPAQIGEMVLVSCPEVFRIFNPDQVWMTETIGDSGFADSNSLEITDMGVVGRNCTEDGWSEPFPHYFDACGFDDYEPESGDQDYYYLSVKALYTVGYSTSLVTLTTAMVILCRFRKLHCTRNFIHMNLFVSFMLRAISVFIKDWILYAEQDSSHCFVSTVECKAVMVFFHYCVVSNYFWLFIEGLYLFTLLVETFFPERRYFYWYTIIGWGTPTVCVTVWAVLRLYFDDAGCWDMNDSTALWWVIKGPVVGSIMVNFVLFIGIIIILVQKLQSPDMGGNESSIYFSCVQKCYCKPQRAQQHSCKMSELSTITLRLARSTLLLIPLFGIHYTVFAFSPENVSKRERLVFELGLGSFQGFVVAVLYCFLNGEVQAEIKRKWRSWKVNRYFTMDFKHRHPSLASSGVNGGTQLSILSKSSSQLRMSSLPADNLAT
Experimental: The effect of each compound on the phosphorylation of CREB (cAMP-responsive element-binding protein) produced by a PACAP stimulus was examined by Western blot analysis using an anti-phosphorylated CREB (pCREB) antibody with a mouse PAC1 receptor-expressing CHO cells (PAC1/CHO cells) and a mouse VPAC1 receptor-expressing CHO cells (VPAC1/CHO cells).
Specifically, treatment with a compound (PA-8, compound 2j and compound 2o) at 10 pM to 10 nM or a solvent therefor, DMSO (VEH: 0.1% DMSO-containing phosphate buffer solution) was performed for 30 minutes, 1 nM PACAP was then added, and protein was recovered within 30 minutes after a PACAP stimulus.
The effect of each compound on the phosphorylation of CREB (cAMP-responsive element-binding protein) produced by a PACAP stimulus was examined by Western blot analysis using an anti-phosphorylated CREB (pCREB) antibody with a mouse PAC1 receptor-expressing CHO cells (PAC1/CHO cells).

[1] = system: chloroquine-induced itch behavior in mice; assay: Itch behavior induced by chloroquine intradermal administration; type: in vivo, mouse; conditions: intrathecal pre-administration (i.t., 10 minutes before i.d.), 1 nmol; chloroquine 100 μg/10 μL; FIG. 10
Experimental: (§1) Chloroquine (100 μg/10 μL) was intradermally injected into the waist of each mouse (intradermal injection, i.d.). The reaction of biting, licking or scratching the injected site was defined as itch behavior, and the behavioral time was counted every 5 minutes. […] DMSO (10% solution, dissolved in normal saline) is a solvent for PA-8 or PA-9.

[2] = system: Compound 48/80-induced itch behavior in mice; assay: Itch behavior induced by Compound 48/80 intradermal administration; type: in vivo, mouse; conditions: intrathecal pre-administration (i.t., 10 minutes before i.d.), 1 nmol; Compound 48/80 100 μg/10 μL; FIG. 11
Experimental: as §1, with “Compound 48/80” for “Chloroquine”

psoriasis mouse model = assay: Psoriasis mouse model (imiquimod); type: in vivo, ICR mice; conditions: 30 mg/kg p.o. 30 minutes before 1 hour video observation; FIG. 14
Experimental: The present test was carried out with reference to the method of van der Fits et al. that is a test system published as a method for evaluating itch in animals (van der Fits L., Mounts S., Voerman J S A., et al.: Imiquimod-Induced Psoriasis-Like Skin Inflammation in Mice Is Mediated via the IL-23/IL-17 Axis, J. Immunol., 182, 5836-5845, 2009).
Five-week-old ICR mice (20 mice) were each placed in a cage, and were then conditioned for 1 week. Thereafter, three days before initiation of the test, the waist of each mouse was shaved. Then, 62.5 mg of commercially available imiquimod cream (5% Beselna Cream; MOCHIDA PHARMACEUTICAL CO., LTD.) was applied onto the shaved waist skin of the mice once a day for 5 days, so as to produce imiquimod-induced psoriasis model. Twenty-four hours after the final application of the cream (Day 5), video observation was carried out for 1 hour. The shaved 20 mice were divided into 5 groups (4 mice per group), namely, a 30 mg/kg PA-8 oral (p.o.) administration group, a 30 mg/kg compound 2o oral (p.o.) administration group, a 30 mg/kg PA-9 oral (p.o.) administration group, a 30 mg/kg compound 3d (p.o.) administration group, and a solvent administration group (VEH: oral administration of 10% DMSO aqueous solution). Oral administration was carried out 30 minutes before initiation of the video observation.

CREB phosphorylation by PACAP (1 nM) (mouse PAC1 receptor; PAC1/CHO cells, compound 10 pM to 10 nM for 30 minutes before PACAP, FIG. 4A, 4C, 4D, 5): suppressed CREB phosphorylation
receptor selectivity (PAC1 versus VPAC1) (mouse PAC1 receptor; concluded from PAC1/CHO and VPAC1/CHO pCREB data): PAC1 receptor selective antagonist
Structure (SMILES): C=CCOc1ccc(C2CC(=O)Nc3nc(N)[nH]c(=O)c32)cc1OC (centres unmarked) [PA-8]
chloroquine-induced itch behavior [1]: almost completely suppressed
Compound 48/80-induced itch behavior [2]: almost completely suppressed
itch behavior induced by application of imiquimod (time spent in scratching) (psoriasis mouse model): significantly suppressed
